Where two headings read alike, the source gives them in different places. Where a SMILES comes first, the peptide text is derived from it. Where no end group is shown, it is not given here.
Tests used:
KIX [1] = biological target: T1, KIX (Mus musculus, UniProt P45481); experiment: KIX binding by isothermal titration calorimetry (ITC); conditions: 30 °C; for − TΔS: entropy term upon KIX binding, pH 7.0, ΔS=(ΔH-ΔG)/T, mean ± standard error of triplicate or more; for N (stoichiometry of binding): pH 7.0, mean ± standard error of triplicate or more
T1 construct: The DNA fragment of KIX (residues 586–672 of mouse CBP); 6xHis-tag with thrombin cleavage site (N); made in house; host or cells: E. coli BL21(DE3)pLysS
Experimental: For the expression of MLL TAD, E. coli BL21(DE3) competent cells were transformed with the plasmid and cultivated at 37 °C in 2 × YT liquid medium supplemented with ampicillin. When an optical density at 600 nm (OD600) of the cell culture reached 0.7–0.8, 1 mM isopropyl β-D-1-thiogalactopyranoside was added to induce protein expression. After 4 h of cultivation, the cells were harvested by centrifugation. The E. coli cell pellet was suspended with buffer HP (50 mM sodium phosphate [pH 7.4], 300 mM NaCl, 10 mM imidazole, and 6 M guanidine hydrochloride). The sonicated lysate was centrifuged at 4 °C, and the supernatant was filtered using a membrane filter and applied to a gravity column (50 mL) containing 5 mL of nickel-nitrilotriacetic acid (Ni–NTA) resin (Qiagen, Hilden, Germany). The column was washed with buffer HP and buffer AP (50 mM sodium phosphate [pH 7.4], 300 mM NaCl, and 10 mM imidazole) to remove impurities. To elute His-tag–GB1–MLL TAD for ITC and SPR measurements, 40 mL of buffer EP (50 mM sodium phosphate [pH 7.4], 300 mM NaCl, and 250 mM imidazole) was added to the column. […] Thus, His-tag–GB1–MLL TAD was used in the ITC measurements, with the exception of the four mutants (I2849L, D2851L, K2855R, and T2857I). To obtain the MLL TAD peptide without His-tag–GB1 for CD measurements, we washed the column, to which the His-tag–GB1–MLL TAD was attached, with buffer TP (50 mM sodium phosphate [pH 7.4] and 300 mM NaCl), added 150 units of thrombin to the column for digestion of the His-tag–GB1, and eluted the MLL TAD peptide with buffer TP. After Ni–NTA column purification, anion exchange chromatography was performed to further purify the aforementioned four mutants without His-tag–GB1 using the AKTAprime plus chromatography system (Cytiva, Marlborough, MA, USA; 10 mM sodium phosphate [pH 6.0] and 0–1 M NaCl). Due to the fact that the CD spectra of the four mutants were unchanged before and after the anion exchange chromatography, we omitted this procedure for other mutants.
Expression and purification of the KIX protein was performed in the same way as MLL, except that E. coli BL21(DE3)pLysS competent cells and 2 × YT liquid medium with ampicillin and chloramphenicol were used. After Ni–NTA column purification, gel filtration chromatography was performed using a Superdex 200 pg column (Cytiva) and the ITC buffer (20 mM Tris–acetate [pH 7.0] and 50 mM NaCl).
ITC measurements were performed using MicroCal iTC200 (Malvern Panalytical Ltd., Malvern, United Kingdom) at 30 °C. Samples were sufficiently dialyzed with the ITC buffer before measurements. The 600 μM MLL solution was titrated into the cell containing 45 µM KIX. The data were analyzed using the Origin 7 software (OriginLab Corp., Northampton, MA, USA; https://www.originlab.com) to obtain the Kd (M), ΔH (kcal/mol), and stoichiometry of binding, N. The ΔG (kcal/mol) and ΔS (kcal/mol/K) were obtained as follows:2 ΔG=-RTln1/Kd 3 ΔS=ΔH-ΔG/T where R is the gas constant, and T is the temperature.

[2] = Helix contents estimated from far-UV CD spectra; assay type: physicochemical; conditions: 30 μM peptide without His-tag–GB1, 30 °C, pH 7.0, CONTINLL with SDP48 reference set
Experimental: CD spectra were measured using a J-805 spectropolarimeter (JASCO, Tokyo, Japan) from 200 to 250 nm in a quartz cuvette with a 1-mm path length at 30 °C. Protein concentrations were 30 μM. The CD intensity was converted to MRE using the following equation:1 MRE(deg cm^2dmol^-1)=CD(mdeg)/N·c(M)·l(mm) where N is the number of residues, c is the protein concentration, and l is the path length.
The helix contents of the MLL TAD peptide were calculated from the far-UV CD spectra using the CONTINLL program[42] with the reference data set containing soluble and denatured proteins (SDP48) in the CDPro package.

KIX [3] = conditions: previously reported value for binding between KIX and MLL TAD; cited from earlier work
Source text: (§1) Previous studies have reported several inhibitors that bind the MLL site of KIX, including isoxazolidine derivatives, which are small molecule compounds that mimic the function of the TADs of transcriptional activators, and natural products such as sekikaic acid and lobaric acid[21],[22].

KIX–MLL interaction = conditions: cited from earlier work
Experimental: as §1, with “acid[21],[22]. […] However, the EC50 and IC50 values of these small molecule inhibitors are 10- to 100-fold larger than the Kd for the KIX–MLL interaction (2.02 ± 0.04 μM).” for “acid[21],[22].”

[4] = inhibition of the KIX–MLL interaction

T1 sequence (P45481 586-672): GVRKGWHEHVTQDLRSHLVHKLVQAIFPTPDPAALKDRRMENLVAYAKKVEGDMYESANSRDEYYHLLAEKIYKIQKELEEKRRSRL

Compound	− TΔS (KIX [1]) [kcal/mol]	other results
T2857A: T2857A mutant of the MLL TAD peptide (GNILPSDIMDFVLKNAPSMQALGESPESY; left off: His6, N-terminal, cleaved | GB1 (B1 domain of Streptococcal protein G), N-terminal, cleaved)	4.0 ± 0.2	–
CC[C@H](C)[C@H](NC(=O)[C@H](CC(=O)O)NC(=O)[C@H](CO)NC(=O)[C@@H]1CCCN1C(=O)[C@H](CC(C)C)NC(=O)[C@@H](NC(=O)[C@H](CC(N)=O)NC(=O)CN)[C@@H](C)CC)C(=O)N[C@@H](CCSC)C(=O)N[C@@H](CC(=O)O)C(=O)N[C@@H](Cc1ccccc1)C(=O)N[C@H](C(=O)N[C@@H](CC(C)C)C(=O)N[C@@H](CCCCN)C(=O)N[C@@H](CC(N)=O)C(=O)N[C@H](C(=O)N1CCC[C@H]1C(=O)N[C@@H](CO)C(=O)N[C@@H](CCSC)C(=O)N[C@@H](CCC(N)=O)C(=O)N[C@@H](C)C(=O)N[C@@H](CC(C)C)C(=O)NCC(=O)N[C@@H](CCC(=O)O)C(=O)N[C@@H](CO)C(=O)N1CCC[C@H]1C(=O)N[C@@H](CCC(=O)O)C(=O)N[C@@H](CO)C(=O)N[C@@H](Cc1ccc(O)cc1)C(=O)O)[C@@H](C)O)C(C)C [wild type, reference compound]	5.2 ± 0.1	N (stoichiometry of binding) (KIX [1]): 1.02 ± 0.01; helix contents [2]: ~ 5.7%; Kd (KIX [3]): 2.1 µM
CCCCCc1c2c(cc(O)c1C(=O)O)OC(=O)c1c(cc(OC)cc1C(=O)CCCC)O2 [lobaric acid]	–	IC50 (KIX–MLL interaction; [4]): 17 µM
O=C(Nc1ccc(Cl)cc1)c1cc2ccccc2cc1OP(=O)(O)O [KG-501]	–	IC50 (KIX–MLL interaction; small molecule inhibitor of the KIX–MLL interaction): 200 ± 10 µM
K2855R / T2857W: K2855R/T2857W double mutant of the MLL TAD peptide ({His6-GB1}-GNILPSDIMDFVLRNWPSMQALGESPESY)	3.86 ± 0.05	–
T2857Y: T2857Y mutant of the MLL TAD peptide ({His6-GB1}-GNILPSDIMDFVLKNYPSMQALGESPESY)	4.5 ± 0.2	–
T2857K: T2857K mutant of the MLL TAD peptide ({His6-GB1}-GNILPSDIMDFVLKNKPSMQALGESPESY)	4.4 ± 0.2	–
T2857W: T2857W mutant of the MLL TAD peptide, highest KIX affinity ({His6-GB1}-GNILPSDIMDFVLKNWPSMQALGESPESY)	4.4 ± 0.1	–
CC[C@H](C)[C@H](NC(=O)[C@H](CC(N)=O)NC(=O)CN)C(=O)N[C@@H](CC(C)C)C(=O)N1CCC[C@H]1C(=O)N[C@@H](CO)C(=O)N[C@@H](CC(=O)O)C(=O)N[C@@H](CC(C)C)C(=O)N[C@@H](CCSC)C(=O)N[C@@H](CC(=O)O)C(=O)N[C@@H](Cc1ccccc1)C(=O)N[C@H](C(=O)N[C@@H](CC(C)C)C(=O)N[C@@H](CCCCN)C(=O)N[C@@H](CC(N)=O)C(=O)N[C@H](C(=O)N1CCC[C@H]1C(=O)N[C@@H](CO)C(=O)N[C@@H](CCSC)C(=O)N[C@@H](CCC(N)=O)C(=O)N[C@@H](C)C(=O)N[C@@H](CC(C)C)C(=O)NCC(=O)N[C@@H](CCC(=O)O)C(=O)N[C@@H](CO)C(=O)N1CCC[C@H]1C(=O)N[C@@H](CCC(=O)O)C(=O)N[C@@H](CO)C(=O)N[C@@H](Cc1ccc(O)cc1)C(=O)O)[C@@H](C)O)C(C)C [I2849L] (H-GNILPSDLMDFVLKNTPSMQALGESPESY-OH; N-terminus and C-terminus assumed)	4.6 ± 0.2	N (stoichiometry of binding) (KIX [1]): 0.947 ± 0.008
CCCc1cc(OC)cc(O)c1C(=O)Oc1c(OC)cc(CCC)c(C(=O)O)c1O [sekikaic acid]	–	IC50 (KIX–MLL interaction; [4]): 34 µM

From paper PMC10113271, “Rational peptide design for inhibition of the KIX–MLL interaction” (Scientific Reports, 2023)
